Measurements from patent US8518966B2, “Amidoalkyl-8-azabicyclo[3.2.1]octane compounds as mu opioid receptor antagonists” (Theravance, Inc., priority 2007, dated 2013).

How the values were obtained:
human mu opioid receptor [1] = target: T1, human mu opioid receptor (Homo sapiens, UniProt P35372); experiment: biochemical; format: binding
T1 construct: host or cells: CHO-K1

human mu opioid receptor [2] = target: T1, human mu opioid receptor; experiment: biochemical; settings: read-out: intrinsic activity (IA), bound GTP-Eu relative to DAMGO (IA=100)
[3] = tested on: loperamide-induced delayed gastric emptying; experiment: Rat gastric emptying assay (reversal of loperamide-induced delayed gastric emptying); format: in vivo; settings: administered orally, loperamide 1 mg/kg s.c.

T1 sequence (P35372 whole entry): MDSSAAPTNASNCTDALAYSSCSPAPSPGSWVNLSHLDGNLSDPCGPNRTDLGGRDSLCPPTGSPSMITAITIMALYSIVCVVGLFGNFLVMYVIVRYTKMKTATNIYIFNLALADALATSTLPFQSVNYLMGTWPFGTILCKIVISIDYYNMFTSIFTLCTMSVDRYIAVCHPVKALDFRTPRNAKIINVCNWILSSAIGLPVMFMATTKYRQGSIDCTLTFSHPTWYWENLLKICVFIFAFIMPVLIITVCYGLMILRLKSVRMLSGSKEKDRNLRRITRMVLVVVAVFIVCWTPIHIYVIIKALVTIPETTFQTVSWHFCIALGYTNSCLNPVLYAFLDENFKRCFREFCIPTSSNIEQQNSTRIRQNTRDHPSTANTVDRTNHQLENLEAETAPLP

Structure (SMILES): CCC(CC)CN(CCCN1[C@@H]2CC[C@H]1C[C@@H](c1cccc(C(N)=O)c1)C2)C(=O)CS(C)(=O)=O [Example 6, 3-endo-(8-{3-[(2-ethylbutyl)-(2-methanesulfonyl-acetyl)amino]propyl}-8-azabicyclo[3.2.1]oct-3-yl)-benzamide]
- Ki (human mu opioid receptor [1]): 0.126 nM
- Emax (human mu opioid receptor [2]): 1%

Structure (SMILES): CCC(CC)CN(CCCN1[C@@H]2CC[C@H]1C[C@@H](c1cccc(C(N)=O)c1)C2)C(=O)CO [Example 1, 3-endo-(8-{3-[(2-ethylbutyl)-(2-hydroxyacetyl)-amino]propyl}-8-aza-bicyclo[3.2.1]oct-3-yl)-benzamide]
- pKi at the human mu opioid receptor (human mu opioid receptor [1]): 10.0
- Emax (human mu opioid receptor [2]): 3%
- ID50, dose required for 50% reversal of the effects of loperamide [3]: 0.29 mg/kg

Structure (SMILES): CCC(CC)CN(CCN1[C@@H]2CC[C@H]1C[C@@H](c1cccc(C(N)=O)c1)C2)C(=O)CS(C)(=O)=O [Example 7, 3-endo-(8-{2-[(2-ethylbutyl)-(2-methanesulfonyl-acetyl)amino]ethyl}-8-azabicyclo[3.2.1]oct-3-yl)-benzamide]
- Ki (human mu opioid receptor [1]): 0.158 nM
- Emax (human mu opioid receptor [2]): 3%
- ID50, dose required for 50% reversal of the effects of loperamide [3]: 0.53 mg/kg
